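Tested at 5 concentrations; 48 h exposure; 96-well plates; endpoints linearly interpolated, else capped at highest concentration. GI50 is the concentration that inhibits growth by half.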 The source made the active and inactive calls. Cut-off read from the data, not from the text of the source: active = GI50 up to about 1.1 µM and inactive = higher.
Key:
Assay in all cases: NCI tumour cell line growth inhibition, 48 h
[1] = tested on: 786-0
[2] = tested on: ACHN
[3] = tested on: HL-60
[4] = tested on: HOP-62
[5] = tested on: M14
[6] = tested on: NCI-H226
[7] = tested on: OVCAR-3
[8] = tested on: OVCAR-5
[9] = tested on: RPMI-8226
[10] = tested on: SK-MEL-28
[11] = tested on: SK-MEL-5
[12] = tested on: SR
[13] = tested on: U-251
[14] = tested on: UO-31
[15] = tested on: KM12
[16] = tested on: OVCAR-8
[17] = tested on: SK-MEL-2
[18] = tested on: TK-10

Compound	GI50 [1]	GI50 [2]	GI50 [3]	GI50 [4]	GI50 [5]	GI50 [6]	GI50 [7]	GI50 [8]	GI50 [9]	GI50 [10]	GI50 [11]	GI50 [12]	GI50 [13]	GI50 [14]	GI50 [15]	GI50 [16]	GI50 [17]	GI50 [18]
CCN(CC)CCCCC1CCN(CC(=O)N2CC(C)C(=O)Nc3ccccc32)CC1 (configuration not stated)	> 100 µM (inactive)	> 100 µM (inactive)	> 100 µM (inactive)	> 100 µM (inactive)	> 100 µM (inactive)	> 100 µM (inactive)	> 100 µM (inactive)	> 100 µM (inactive)	> 100 µM (inactive)	> 100 µM (inactive)	> 100 µM (inactive)	> 100 µM (inactive)	> 100 µM (inactive)	> 100 µM (inactive)				
CCN(CC)CCOc1ccc(C(=C2CCCCC2)c2ccc(OCCN(CC)CC)cc2)cc1	1.39 µM (inactive)	1.75 µM (inactive)	0.299 µM (active)	1.77 µM (inactive)	1.55 µM (inactive)	2.15 µM (inactive)	1.72 µM (inactive)	1.79 µM (inactive)	0.7 µM (active)	1.32 µM (inactive)	1.58 µM (inactive)		1.64 µM (inactive)	1.59 µM (inactive)	1.27 µM (inactive)	1.73 µM (inactive)	1.93 µM (inactive)	1.5 µM (inactive)
c1ccc([B-]23Oc4ccccc4[NH+]2c2ccccc2O3)cc1 (configuration not stated)	> 100 µM (inactive)	75.7 µM (inactive)	17.5 µM (inactive)	> 100 µM (inactive)	> 100 µM (inactive)	> 100 µM (inactive)	56.6 µM (inactive)	> 100 µM (inactive)	23.9 µM (inactive)	> 100 µM (inactive)	> 100 µM (inactive)	37 µM (inactive)	> 100 µM (inactive)		77.6 µM (inactive)	57.7 µM (inactive)		47.2 µM (inactive)
CC1(C)C(c2ccccc2)C12CCC1(C2=O)C(c2ccccc2)C1(C)C (configuration not stated)	25.2 µM (inactive)	19.6 µM (inactive)	20.1 µM (inactive)	26.1 µM (inactive)	23.3 µM (inactive)	17.9 µM (inactive)	19.9 µM (inactive)	24.7 µM (inactive)	14.3 µM (inactive)	27.2 µM (inactive)	18.7 µM (inactive)		17.8 µM (inactive)	19.9 µM (inactive)	> 10 µM (inactive)	34.1 µM (inactive)	19.7 µM (inactive)	34.5 µM (inactive)
Nc1nc2ncn(CCO)c2c(=S)[nH]1	> 100 µM (inactive)	> 100 µM (inactive)	> 100 µM (inactive)	> 100 µM (inactive)	> 100 µM (inactive)	> 100 µM (inactive)	> 100 µM (inactive)	> 100 µM (inactive)	> 100 µM (inactive)	> 100 µM (inactive)	> 100 µM (inactive)		> 100 µM (inactive)	> 100 µM (inactive)	> 100 µM (inactive)	> 100 µM (inactive)	> 100 µM (inactive)	> 100 µM (inactive)
CC1(C)CC(N(C(=O)/C=C/c2ccc([N+](=O)[O-])o2)C2CCCCC2)CC(C)(C)N1	6.82 µM (inactive)	12.8 µM (inactive)	2.21 µM (inactive)	20 µM (inactive)	2.82 µM (inactive)		12.3 µM (inactive)	23.6 µM (inactive)	3.29 µM (inactive)	12.5 µM (inactive)	10.2 µM (inactive)	5.89 µM (inactive)	5.35 µM (inactive)	12.2 µM (inactive)	10.3 µM (inactive)	5.2 µM (inactive)		21.3 µM (inactive)
N=c1c2ccccc2nc2oc3ccccc3n12	> 10 µM (inactive)	30.5 µM (inactive)	> 100 µM (inactive)	23.2 µM (inactive)			> 10 µM (inactive)	45.3 µM (inactive)	> 100 µM (inactive)	> 10 µM (inactive)	15.5 µM (inactive)			> 100 µM (inactive)		37.5 µM (inactive)	37.5 µM (inactive)	28.4 µM (inactive)
O=[N+]([O-])c1c(/C=N/c2ccccc2)oc(-c2ccc3c(c2)OCO3)c1-c1ccc2c(c1)OCO2	> 100 µM (inactive)	> 100 µM (inactive)	> 100 µM (inactive)	> 100 µM (inactive)	> 100 µM (inactive)	48.8 µM (inactive)	> 100 µM (inactive)	> 100 µM (inactive)	> 100 µM (inactive)	> 100 µM (inactive)	> 100 µM (inactive)	> 100 µM (inactive)	> 100 µM (inactive)	9.29 µM (inactive)	> 100 µM (inactive)	> 100 µM (inactive)		> 100 µM (inactive)
CC(C)CC(=O)N1CCN(C(=O)CC(C)C)c2ccccc21	> 100 µM (inactive)	> 100 µM (inactive)	> 100 µM (inactive)	> 100 µM (inactive)			> 100 µM (inactive)	> 100 µM (inactive)	> 100 µM (inactive)	> 100 µM (inactive)			> 100 µM (inactive)	> 100 µM (inactive)	> 100 µM (inactive)	> 100 µM (inactive)	> 100 µM (inactive)	> 100 µM (inactive)
O=C(O)COc1ccc(C(=O)/C(SS/C(C(=O)c2ccc(OCC(=O)O)c(Cl)c2Cl)=C2\C=C(c3ccc(Cl)cc3)SS2)=C2/C=C(c3ccc(Cl)cc3)SS2)c(Cl)c1Cl	13.5 µM (inactive)	8.39 µM (inactive)	0.252 µM (active)	39.8 µM (inactive)	13.5 µM (inactive)	5.66 µM (inactive)	5.37 µM (inactive)	30.1 µM (inactive)	22.3 µM (inactive)	25.2 µM (inactive)	16.7 µM (inactive)		4.2 µM (inactive)	4.89 µM (inactive)	16 µM (inactive)	5.85 µM (inactive)	14.1 µM (inactive)	24.7 µM (inactive)
CN1CC(=O)N(C)c2[nH]cnc2C1=O	> 100 µM (inactive)	> 100 µM (inactive)	> 100 µM (inactive)		> 100 µM (inactive)	> 100 µM (inactive)	> 100 µM (inactive)	> 100 µM (inactive)	> 100 µM (inactive)	> 100 µM (inactive)	> 100 µM (inactive)	> 100 µM (inactive)	> 100 µM (inactive)	> 100 µM (inactive)	> 100 µM (inactive)	> 100 µM (inactive)		> 100 µM (inactive)
CCc1cccc(C)c1NC(=O)NS(=O)(=O)c1ccc(C)cc1	> 100 µM (inactive)	> 100 µM (inactive)	> 100 µM (inactive)	> 100 µM (inactive)	> 100 µM (inactive)		> 100 µM (inactive)	> 100 µM (inactive)	> 100 µM (inactive)	> 100 µM (inactive)	> 100 µM (inactive)		> 100 µM (inactive)	> 100 µM (inactive)	> 100 µM (inactive)	> 100 µM (inactive)	> 100 µM (inactive)	> 100 µM (inactive)
C=C(C)[C@H](O)C(O)CC(C)[C@@H]1CCC23CC12CCC1[C@@]2(C)CCC(OC(C)=O)C(C)(C)C2CC(OC2OC(COC(C)=O)C(O)C(O)C2O)[C@]13C (some centres not stated)	7.4 µM (inactive)	6.61 µM (inactive)	1.62 µM (inactive)	6.92 µM (inactive)	3.41 µM (inactive)	5.45 µM (inactive)	5.83 µM (inactive)	7.69 µM (inactive)	1.5 µM (inactive)	7.19 µM (inactive)			4.74 µM (inactive)	8.18 µM (inactive)	5.47 µM (inactive)	6.47 µM (inactive)	8.83 µM (inactive)	6.55 µM (inactive)
CCCCSN1C(=O)c2ccccc2C1=S	34.1 µM (inactive)	> 100 µM (inactive)	21.4 µM (inactive)	> 100 µM (inactive)	41.6 µM (inactive)		> 100 µM (inactive)	> 100 µM (inactive)	21 µM (inactive)	> 100 µM (inactive)	60.5 µM (inactive)		> 100 µM (inactive)	53.3 µM (inactive)	37.8 µM (inactive)	60.4 µM (inactive)	34.4 µM (inactive)	> 100 µM (inactive)
Cc1cc(Cl)ccc1NC(=O)CC1SC(N)=NC1=O (configuration not stated)	> 100 µM (inactive)	> 100 µM (inactive)	> 100 µM (inactive)	> 100 µM (inactive)	> 100 µM (inactive)	> 100 µM (inactive)	> 100 µM (inactive)	> 100 µM (inactive)	> 100 µM (inactive)	> 100 µM (inactive)	> 100 µM (inactive)		> 100 µM (inactive)	> 100 µM (inactive)	> 100 µM (inactive)	> 100 µM (inactive)	> 100 µM (inactive)	> 100 µM (inactive)
ON=C1CCC(c2ccccc2)CC1 (configuration not stated)	> 100 µM (inactive)	> 100 µM (inactive)	> 100 µM (inactive)	> 100 µM (inactive)	> 100 µM (inactive)	> 100 µM (inactive)	> 100 µM (inactive)	> 100 µM (inactive)		> 100 µM (inactive)	> 100 µM (inactive)		> 100 µM (inactive)	> 100 µM (inactive)	> 100 µM (inactive)	> 100 µM (inactive)	> 100 µM (inactive)	> 100 µM (inactive)
CCNC1=Nc2ccc(Cl)cc2C(c2ccccc2)=NN1	17.8 µM (inactive)	31.7 µM (inactive)	22.3 µM (inactive)	24.6 µM (inactive)	17.3 µM (inactive)	20.7 µM (inactive)	17.5 µM (inactive)	21.8 µM (inactive)	29 µM (inactive)	17.5 µM (inactive)	14.8 µM (inactive)		20.5 µM (inactive)	30.2 µM (inactive)	12.9 µM (inactive)	26.8 µM (inactive)	16.7 µM (inactive)	28.4 µM (inactive)

From ChEMBL document CHEMBL1201862, “PubChem BioAssay data set” (2004)
